This is an account of results in US4206127A, “5,6-Dihydro analogues of prostaglandin I2” (Miles Laboratories, Inc., priority 1978, dated 1980).

One assay deals with rat gastric secretion. Kind of assay: Effects of Prostaglandin Analogues on Gastric Secretion in the Rat (Test B). In kind it is in vivo. The conditions noted are these: pylorus-ligated rats, subcutaneous 1.5 mg/kg twice (total 3.0 mg/kg), 4 hours. The procedure: B. Evaluation of the Effects of Prostaglandin Analogues on Gastric Secretion in the Rat
A procedure based on that described by Lipmann (J. Pharm. Pharmacol., 21: 335 [1968]) was used to assess the influence of test compounds on gastric secretion. Rats of one sex weighing 150 to 200 g were randomly divided into groups of six animals each and fasted for 48 hours previously to the experiments, water being available ad libitum. The animals were anesthetized with ether, the abdomen was opened through a midline incision and the pylorus was ligated. Test compounds were diluted from stock solution so as to administer a dose of 1.5 mg/kg in a volume equivalent to 1 ml/kg. Subcutaneous injections were applied immediately after surgery and again 2 hours later, so that a total dose of 3.0 mg/kg was administered. Dilutions were made with phosphate buffer (pH 7.38), as recommended by Lee et al. (Prostaglandins 3: 29 [1973]), in order to insure adequate stability of drugs at the subcutaneous depot. […]
Four hours after pyloric ligation the animals were killed with ether, the cardias ligated and stomachs removed. The volume of gastric secretion was measured and the contents centrifuged at 5000 rpm for 10 minutes. […]
Volume and total acid values of the treated group were compared with those of the controls by the "Squared" test. Antisecretory activity was scored according to the following scale: […]

The next assay concerns platelet aggregation. Particulars: cited from earlier work.
The next assay relates to blood vessels. Particulars: cited from earlier work.

In the case of “Ethyl 5, 9β-Epoxy-11α,15-dihydroxy-16,20-methanoprost-13E-en-1-oate [TR-4973]”, the “Activity Value, Test B - inhibition of rat gastric secretion (score of % decrease in acidity)” value with rat gastric secretion is listed as 0 (<26).
Still for that read-out and setting: the result for “9-Deoxy-9a-Homo-6, 9α-epoxy-15S-hydroxyprost-13E-en-1-oic acid [TR-4921]” reads 2 (26-50, significant).
For `CCCCC[C@H](O)/C=C/[C@@H]1[C@H]2C/C(=C/CCCC(=O)O)O[C@H]2C[C@H]1O` [PGI2, (5Z)-9-deoxy-6, 9α-epoxy-Δ^5-prostaglandin F1α], the “inhibition of platelet aggregation” value with platelet aggregation is recorded as “the most potent inhibitor of platelet clumping of all the prostaglandins discovered to date”. Besides, the “destruction of platelet clumps” value in the assay with platelet aggregation (in vitro, clumps already induced to form) is “destroys platelet clumps after they have been induced to form”. For the same compound, the “dilation of blood vessels” value with blood vessels is given as “dilates blood vessels dramatically”.
